Data reported in patent US5349127A, “Expression of herbicide metabolizing cytochromes P450” (priority 1992, dated 1994).

What was measured:
[1] = test system: S. lividans C37; test: Percent conversion of herbicides by cultures (Example 16); assay type: in vitro ADME, Streptomyces lividans; conditions: 3.0 mg herbicide in 25 ml broth; 24 hours
Method: (§1) Separate cultures (50 ml) inoculated with S. lividans C37, S. lividans transformed with pCAO200SU1-FeS-B#9, S. griseolus ATCC11796, S. griseolus PH2003 transformed with pIJ425, or S. ariseolus PH2003 transformed with pCS325 were cultured in sporulation broth for 18 hours at 30° C. with shaking. Each culture was then resuspended in 25 ml fresh sporulation broth and 3.0 mg herbicide added. In the case of cultures of S. griseolus ATCC11796, a second culture containing herbicide and 3.0 mg 10001 was also prepared. Each culture was reincubated for 24 hours, then an aliquot of the medium was withdrawn and analyzed by HPLC. The percent conversion of herbicide was determined.

[2] = test system: S. lividans pCAO200SU1-FeS-B#9; test: as above; assay type: in vitro ADME, Streptomyces lividans; conditions: for Percent Conversion: 3.0 mg herbicide in 25 ml broth, 24 hours
Method: as §1

[3] = test system: S. griseolus ATCC 11796, 10001 added; test: as above; assay type: in vitro ADME, Streptomyces griseolus; conditions: 3.0 mg herbicide and 3.0 mg 10001 in 25 ml broth; 24 hours
Method: as §1

[4] = test system: S. griseolus ATCC 11796; test: as above; assay type: in vitro ADME, Streptomyces griseolus; conditions: 3.0 mg herbicide in 25 ml broth; 24 hours
Method: as §1

[5] = target: T1, purified cytochrome p450SU1 (Streptomyces griseolus, UniProt P18326); test: Rate of metabolism of 10015 to 10014 supported by FeS proteins (Example 27); assay type: biochemical; conditions: 0.2 mM 10015, 15 min
T1 construct: Purified, native cytochromes P450SU1 and P450SU2; endogenous in cells; host or cells: sulfonylurea-induced Streptomyces griseolus cells
T1 sequence (P18326 whole entry, looked up): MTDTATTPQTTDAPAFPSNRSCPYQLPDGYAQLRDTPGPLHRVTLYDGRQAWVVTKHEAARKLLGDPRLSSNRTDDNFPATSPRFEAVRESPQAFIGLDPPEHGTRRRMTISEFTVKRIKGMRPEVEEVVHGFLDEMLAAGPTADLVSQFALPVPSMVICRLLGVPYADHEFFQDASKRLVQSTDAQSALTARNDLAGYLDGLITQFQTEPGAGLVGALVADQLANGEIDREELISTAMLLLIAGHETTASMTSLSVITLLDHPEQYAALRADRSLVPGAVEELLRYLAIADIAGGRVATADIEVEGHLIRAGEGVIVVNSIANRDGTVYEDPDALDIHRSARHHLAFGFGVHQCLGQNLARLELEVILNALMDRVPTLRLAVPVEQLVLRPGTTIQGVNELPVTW
Method: The purpose of this example was to define the combination of cytochrome p450SU1 and other proteins which results in optimal metabolism of sulfonylureas, based on conclusions from in vitro experiments. In these experiments, the rate of metabolism of 10015 to 10014, mediated by purified cytochrome p450SU1, was tested to find which FeS protein functions as the best direct electron donor.
The reaction was initiated by-the addition of NADPH to a final concentration of 0.03 mM. After 15 min the reaction was terminated by the addition of 0.25 ml H2 O:acetonitrile:H3 PO4^- (80:19:1). After filtering this mixture through a 0.2 μm filter, the amount of metabolite (10014) formed was analyzed by HPLC.

[6] = test system: S. griseolus PH2003 pCS325; test: Percent conversion of herbicides by cultures (Example 16); assay type: in vitro ADME, Streptomyces griseolus
Method: as §1

[7] = test system: S. griseolus PH2003 pIJ425; test: as above; assay type: in vitro ADME, Streptomyces griseolus; conditions: 3.0 mg herbicide in 25 ml broth; 24 hours
Method: as §1

[8] = test system: S. lividans transformed with pCAO400; test: Sulfonylurea metabolism by washed cell suspension (Example 5); assay type: in vitro ADME, Streptomyces lividans; conditions: substrate 10004 about 100 μg/ml
Method: Herbicides and their metabolites are measured by HPLC as described by Romesser et al., BBRC 140: 650-659 (1986), herein incorporated by reference, except that 0.1% H3 PO4 is used in both solvents. Chromatographic identity and quantitation of the herbicides and their resulting metabolites is determined by comparing them chromatographically with authentic standard compounds. Identity of the resulting metabolites is also confirmed by UV spectroscopy.
A 100 ml culture of S. griseolus ATCC 11796 in sporulation broth and a 50 ml culture of S. lividans transformed with pCAO400 in YEME broth were prepared and incubated for 24 hours as described. At that time, the S. griseolus culture was split into two 50 ml aliquots into two separate flasks and 25 ml of fresh sporulation broth was added to each and 9 mg of […] was added to one of these cultures to induce cytochrome P450SU1 expression. Fresh YEME broth (25 ml) was added to the S. lividans culture. After an additional 6 hours growth at 30° C., the cells in each culture were harvested as described above, washed twice with MOPS (50 mM, pH 7.2) and recentrifuged. The cell pellets were resuspended in four cell volumes of MOPS (50 mM, pH 7.2) containing 0.2% glucose and about 100 μg/ml of 10004. These cell suspensions were incubated at 30° C. with shaking and aliqouts were taken at 2 and 5.5 hours. The supernatant of each aliquot was analyzed by HPLC and the concentrations of the sulfonylurea compound 10004 and its metabolite 10005 were determined.

[9] = test system: S. lividans pCAO200SU1-FeS-B#9; test: Sulfonylurea metabolism by washed cell suspension (Examples 6-9); assay type: in vitro ADME, Streptomyces lividans; conditions: substrate 10004
[10] = test system: S. lividans pCAO200SU1#12; test: as above; assay type: in vitro ADME, Streptomyces lividans; conditions: substrate 10004
[11] = test system: S. lividans pCAO200; test: as above; assay type: in vitro ADME, Streptomyces lividans; conditions: substrate 10004

Compound: N#Cc1cc(Br)c(O)c(Br)c1 [compound 10023, 3,5-dibromo-4-hydroxybenzonitrile]
- Percent Conversion [1]: 0%
- Percent Conversion [2]: 0%
- Percent Conversion [3]: 0%
- Percent Conversion [4]: 0%

Compound: spinach Fd: spinach ferredoxin (an FeS protein)
- Rate of 10015 metabolism to 10014 [5]: 0.4 (nmol 10014)·(nmol p450)-1·(mi
- Rate of 10015 metabolism to 10014 ([5]; 4 mM FeS addition, FNR 0.2 mM): 0.2 (nmol 10014)·(nmol p450)-1·(mi
- Rate of 10015 metabolism to 10014 ([5]; 4 mM FeS addition, FNR 2.0 mM): 0.2 (nmol 10014)·(nmol p450)-1·(mi

Compound: CN(C)c1nc(=O)n(C2CCCCC2)c(=O)n1C [compound 10017, 3-cyclohexyl-1-methyl-6-dimethylamino-S-triazine-2,4(1H,3H)dione]
- Percent Conversion [1]: 19%
- Percent Conversion [2]: 47%
- metabolism by bacteria containing constitutively expressed P450SU1 ([2]; summary of Table 13): metabolized
- Percent Conversion [3]: 35%
- Percent Conversion [4]: 1%
- Percent Conversion ([6]; 3.0 mg herbicide in 25 ml broth, 24 hours): 98%
- metabolism by bacteria containing constitutively expressed P450SU2 ([6]; summary of Table 13): metabolized
- Percent Conversion [7]: 6%

Compound: COc1cc(OC)nc(NC(=O)NS(=O)(=O)c2cccc3c2S(=O)(=O)N(CCC(C)O)C3)n1 (centres unmarked) [compound 10005, 2-(3-hydroxybutyl)-2,3-dihydro-N-[(4,6-dimethoxypyrimidin-2-yl)aminocarbonyl]1,2-benzisothiazole-7-sulfonamide-1,1-dioxide]
- concentration in supernatant ([8]; 2 h): 67 µM
- concentration in supernatant ([8]; 5.5 h): 125 µM
- concentration in supernatant ([9]; 2 h): 35 µM
- concentration in supernatant ([9]; 4 h): 100 µM
- concentration in supernatant ([9]; 6 h): 100 µM
- concentration in supernatant ([10]; 2 h): 43 µM
- concentration in supernatant ([10]; 4 h): 84 µM
- concentration in supernatant ([10]; 6 h): 109 µM
- concentration in supernatant ([11]; 2 h): 22 µM
- concentration in supernatant ([11]; 4 h): 26 µM
- concentration in supernatant ([11]; 6 h): 30 µM
